Experimental data taken from patent US20060223826A1, “Indole derivatives as somatostatin agonists or antagonists” (Takeda Pharmaceutical Company Limited Intellectual Property …, priority 2002, published 2006).

Columns and labels:
[1] = tested on: glucagon secretion; assay: Glucagon secretion inhibitory activity test (rat); format: in vivo; settings: SD rats, male, fasted; 3 mg/kg body weight orally; insulin 2 U/kg s.c. 120 minutes later; plasma glucagon 30 minutes after insulin
Procedure: Glucagon Secretion Inhibitory Activity Test (Rat)
A 0.5% methylcellulose suspension containing the subject compound (3 mg/kg body weight) (compound administration group) or a 0.5% methylcellulose suspension (compound non-administration group) was orally administered to SD rats (male, 7 weeks of age) after fasting overnight, and 120 minutes later, insulin (2 U/kg body weight, Novo Nordisk) was subcutaneously administered. After 30 minutes from the insulin administration, the blood was drawn from the vein of eyegrounds of the rats using capillary, and blood plasma was separated by centrifugation. The concentration of glucagon in the obtained blood plasma was measured by radioimmunoassay using a Daiichi glucagon kit (Daiichi Isotope). As a non-treated group, the concentration of glucagon in the blood plasma of rat of the compound non-administration group free of insulin administration was measured in the same manner as above. […]

[2] = molecular target: T1, human somatostatin receptor 2 (Homo sapiens, UniProt P30874); assay: Measurement of the binding inhibition rate of 125I-somatostatin; settings: membrane fraction of SSTR2-HS5-9 CHO cells; 125I-somatostatin-14; 25° C., 60 minutes; compound concentration not given
T1 construct: expressed in transfected cells; host or cells: CHO cells, clone SSTR2-HS5-9 (membrane fraction)
Procedure: Measurement of the Binding Inhibition Rate of ^125I-Somatostatin
The receptor binding inhibition rate (%) of the subject compound was calculated using human.somatostatin receptor 2 expressing CHO cells and SSTR2-HS5-9 described in WO02/16350.
First, SSTR2-HS5-9 (1×10^9) was floated on a phosphate buffered saline supplemented with 5 mM EDTA (PBS-EDTA) and centrifuged. To the cell pellets was added 10 ml of a homogenate buffer for cells (10 mM NaHCO3, 5 mM EDTA, pH 7.5), which was homogenated using a Polytron homogenizer. The supernatant obtained by centrifugation at 400×g for 15 minutes was further centrifuged at 100,000×g for 1 hour to give a precipitate of the membrane fraction. The precipitates ere suspended in 2 ml of a buffer solution for assay [25 mM Tris-HCl, 1 mM EDTA (Ethylenediaminetetraacetic Acid), 0.1% BSA (Bovine Serum Albumin), 0.25 mM PMSF (Phenylmethylsulfonyl Fluoride), 1 μg/ml pepstatin, 20 μg/ml leupeptin, 10 μg/ml Phosphoramidone, pH 7.5], which was centrifuged at 100,000×g for 1 hour. The membrane fraction recovered as precipitates was suspended again in 20 ml of the buffer solution for assay, which was placed in tubes and stored at −80° C. The suspension was thawed and used at every use.
The thus-obtained membrane fraction of SSTR2-HS5-9 cells was diluted with a buffer solution for assay [25 mM Tris-HCl, 1 mM EDTA (Ethylenediaminetetraacetic Acid), 0.1% BSA (Bovine Serum Albumin), 0.25 mM PMSF (Phenylmethylsulfonyl Fluoride), 1 μg/ml pepstatin, 20 μg/ml leupeptin, 10 μg/ml Phosphoramidone, pH 7.51 to adjust the concentration to 3 μg/ml. The diluate was placed in tubes each in quantity of 173 μl. To this were simultaneously added 2 μl of a solution of a subject compound in DMSO and 25 μl of a 200 pM radioisotope-labeled somatostatin-14 (^125I-somatostatin-14: Amersham). For measurement of the maximum binding, a reaction mixture added with 2 μl of DMSO and 25 μl of a 200 pM ^125I-somatostatin was prepared. For measurement of non-specific binding, a reaction mixture added with 2 μl of a 100 μm somatostatin solution in DMSO and 25 μl of a 200 pM ^125I-somatostatin-14 solution was prepared at the same time. The mixtures were allowed to react at 25° C. for 60 minutes. Then, the reaction mixture was filtered by aspiration using a Whatman glass filter (GF-B) treated with polyethylenimine. After filtration, the radioactivity of ^125I-somatostatin-14 remaining on the filter paper was measured by a γ-counter. The binding inhibition rate (%) of each subject compound was calculated by the following formula: (TB−SB)/(TB−NSB)×100 • SB: radioactivity when a subject compound was added • TB: maximum binding radioactivity • NSB: non-specific binding radioactivity

T1 sequence (P30874 whole entry): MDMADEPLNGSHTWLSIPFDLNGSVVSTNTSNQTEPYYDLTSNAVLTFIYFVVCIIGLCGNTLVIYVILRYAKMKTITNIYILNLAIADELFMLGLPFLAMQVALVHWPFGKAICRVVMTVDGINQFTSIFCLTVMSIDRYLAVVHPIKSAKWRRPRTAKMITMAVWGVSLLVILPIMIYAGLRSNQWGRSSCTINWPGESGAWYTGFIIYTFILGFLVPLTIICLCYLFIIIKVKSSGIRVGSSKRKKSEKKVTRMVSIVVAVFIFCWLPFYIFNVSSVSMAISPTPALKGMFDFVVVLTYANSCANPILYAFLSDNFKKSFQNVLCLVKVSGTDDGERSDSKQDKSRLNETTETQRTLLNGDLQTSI

Row | Compound | glucagon secretion (% of control) [1] | binding inhibition rate (%) [2] [%]
1 | C[C@@H](c1c[nH]c2ccccc12)[C@@H](NC(=O)N1CCC(c2ccccc2)CC1)C(=O)Nc1cccc(CN(C)C)c1 [Example 1, N-((1R,2S)-1-(((3-((dimethylamino)methyl)phenyl)amino)carbonyl)-2-(1H-indol-3-yl)propyl)-4-phenyl-1-piperidinecarboxamide] | 9.5 % of control | 98
2 | C[C@@H](c1c[nH]c2ccccc12)[C@@H](NC(=O)N1CCC(Oc2ccc(F)cc2)CC1)C(=O)Nc1cccc(CN(C)C)c1 [Example 2, N-( (1R,2S)-1-( ((3-((dimethylamino)methyl)phenyl)amino)carbonyl)-2-(1H-indol-3-yl)propyl)-4-(4-fluorophenoxy)-1-piperidinecarboxamide] |  | 100
3 | CCOc1ccc(CN(C)C)cc1NC(=O)[C@H](NC(=O)N1CCC(c2ccccc2)CC1)[C@@H](C)c1c[nH]c2ccccc12 [Example 54, N-((1R,2S)-1-(((5-((dimethylamino)methyl)-2-ethoxyphenyl)amino)carbonyl)-2-(1H-indol-3-yl)propyl)-4-phenyl-1-piperidinecarboxamide] |  | 100
4 | CCOc1ccc(CN(C)C)cc1NC(=O)[C@H](NC(=O)N1CCN(c2ccc(F)cc2)CC1)[C@@H](C)c1c[nH]c2ccccc12 [Example 67, N-((1R,2S)-1-(((5-((dimethylamino)methyl)-2-ethoxyphenyl)amino)carbonyl)-2-(1H-indol-3-yl)propyl)-4-(4-fluorophenyl)-1-piperazinecarboxamide] |  | 96
